Experimental data: US20230124862A1, “BISMUTH THIOL COMPOUNDS AND COMPOSITIONS AND METHODS OF TREATING MICROBIAL CO-INFECTIONS” (Microbion Corporation, priority 2020, published 2023)
In brackets after ≈: the same amount, converted by molar mass.

How the values were obtained:
[1] = test system: P. aeruginosa and A. baumannii; settings: P. aeruginosa (MMX 103), QC; cited from earlier work
Pseudomonas aeruginosa [2] = test: Broth microdilution MIC (Example 12); type: cell-based
Escherichia coli [3] = test: Broth microdilution MIC (Example 12); type: cell-based
Klebsiella pneumoniae = test: Broth microdilution MIC (Example 12); type: cell-based
Escherichia coli [4] = settings: E. coli ATCC 25922; CLSI established QC range; cited from earlier work
[5] = test system: Gram-positive aerobic bacteria (S. aureus, MRSA, CA-MRSA); test: MIC90 against 150 clinical isolates of Gram-positive aerobic bacteria; type: cell-based; settings: S. aureus (50 isolates)
Acinetobacter baumannii = test: Broth microdilution MIC (Example 12); type: cell-based
Enterobacteriaceae [6] = settings: E. coli (MMX 102), QC; cited from earlier work
Enterobacteriaceae [7] = test: Broth microdilution MIC (Example 11); type: cell-based, E. coli, K. pneumoniae, Enterobacter cloacae
Pseudomonas aeruginosa [8] = settings: P. aeruginosa ATCC 27853; CLSI established QC range; cited from earlier work

Q: For CC(C)(O/N=C(\C(=O)N[C@@H]1C(=O)N2C(C(=O)[O-])=C(C[n+]3ccccc3)CS[C@H]12)c1csc(N)n1)C(=O)O [CAZ], which “CLSI Quality Control Range (MIC)” value [1] is on record?
A: Its value is “(1.4)”.

Q: And the MIC (Pseudomonas aeruginosa [2]; P. aeruginosa ATCC 27853, ATCC QC organism (Table 102))?
A: The MIC was 2 µg/mL (≈ 3.66 µM).

Q: And the MIC (Pseudomonas aeruginosa [2]; P. aeruginosa CDC 230, VIM/OXA)?
A: The MIC was 64 µg/mL (≈ 117 µM).

Q: And the MIC (Pseudomonas aeruginosa [2]; P. aeruginosa CDC 231, KPC/OXA)?
A: The MIC was >64 µg/mL.

Q: What about the MIC (Pseudomonas aeruginosa [2]; P. aeruginosa CDC 241, IMP/OXA) of the same compound?
A: The MIC was >64 µg/mL.

Q: And the MIC (Pseudomonas aeruginosa [2]; P. aeruginosa CDC 246, NDM/OXA)?
A: Its MIC is >64 µg/mL.

Q: What about the MIC (Pseudomonas aeruginosa [2]; P. aeruginosa CDC 250, NDM/OXA) of the same compound?
A: The MIC was >64 µg/mL.

Q: And the MIC (Pseudomonas aeruginosa [2]; P. aeruginosa CDC 356, KPC)?
A: Its MIC is 64 µg/mL (≈ 117 µM).

Q: What about the MIC (Pseudomonas aeruginosa [2]; P. aeruginosa CDC 439, IMP) of the same compound?
A: The MIC was >64 µg/mL.

Q: What about the MIC (Pseudomonas aeruginosa [2]; P. aeruginosa CDC 444, VIM) of the same compound?
A: The MIC was 32 µg/mL (≈ 58.5 µM).

Q: And the MIC (Pseudomonas aeruginosa [2]; P. aeruginosa CDC 457, VIM)?
A: The MIC was >64 µg/mL.

Q: What about the MIC (Pseudomonas aeruginosa [2]; P. aeruginosa CDC 516, KPC/AmpC) of the same compound?
A: The MIC was 64 µg/mL (≈ 117 µM).

Q: What about the MIC (Pseudomonas aeruginosa [2]; P. aeruginosa CDC 518, KPC/AmpC) of the same compound?
A: Its MIC is 32 µg/mL (≈ 58.5 µM).

Q: What about the MIC (Escherichia coli [3]; E. coli ATCC 25922, ATCC QC organism (Table 102)) of the same compound?
A: Its MIC is 0.25 µg/mL (≈ 0.457 µM).

Q: What about the MIC (Escherichia coli [3]; E. coli ATCC 35218, ATCC QC organism (Table 102)) of the same compound?
A: The MIC was 0.12 µg/mL (≈ 0.22 µM).

Q: And the MIC (Escherichia coli [3]; E. coli ATCC 35218, ESBL)?
A: Its MIC is 0.12 µg/mL (≈ 0.22 µM).

Q: What about the MIC (Escherichia coli [3]; E. coli ATCC BAA-2471, NDM) of the same compound?
A: The MIC was >64 µg/mL.

Q: What about the MIC (Escherichia coli [3]; E. coli CDC 114, ESBL/KPC) of the same compound?
A: Its MIC is >64 µg/mL.

Q: And the MIC (Escherichia coli [3]; E. coli CDC 118, ESBL/NDM)?
A: The MIC was >64 µg/mL.

Q: What about the MIC (Escherichia coli [3]; E. coli CDC 435, NDM) of the same compound?
A: Its MIC is >64 µg/mL.

Q: And the MIC (Escherichia coli [3]; E. coli CDC 451, KPC)?
A: The MIC was 64 µg/mL (≈ 117 µM).

Q: What about the MIC (Escherichia coli [3]; E. coli CDC 503, ESBL/NDM) of the same compound?
A: Its MIC is >64 µg/mL.

Q: What about the MIC (Escherichia coli [3]; E. coli MMX 5745, KPC) of the same compound?
A: The MIC was 32 µg/mL (≈ 58.5 µM).

Q: And the MIC (Escherichia coli [3]; E. coli MMX 5755, ESBL)?
A: Its MIC is >64 µg/mL.

Q: What about the MIC (Escherichia coli [3]; E. coli MMX 5756, ESBL) of the same compound?
A: The MIC was >64 µg/mL.

Q: And the MIC (Escherichia coli [3]; E. coli MMX 5758, ESBL)?
A: Its MIC is 16 µg/mL (≈ 29.3 µM).

Q: And the MIC (Klebsiella pneumoniae; K. pneumoniae ATCC BAA-1705, ATCC QC organism (Table 102))?
A: The MIC was >64 µg/mL.

Q: What about the MIC (Klebsiella pneumoniae; K. pneumoniae ATCC BAA-1705, ESBL/KPC) of the same compound?
A: The MIC was >64 µg/mL.

Q: What about the MIC (Klebsiella pneumoniae; K. pneumoniae CDC 112, KPC) of the same compound?
A: The MIC was >64 µg/mL.

Q: What about the MIC (Klebsiella pneumoniae; K. pneumoniae CDC 113, ESBL/KPC) of the same compound?
A: The MIC was >64 µg/mL.

Q: And the MIC (Klebsiella pneumoniae; K. pneumoniae CDC 115, ESBL/KPC)?
A: Its MIC is >64 µg/mL.

Q: And the MIC (Klebsiella pneumoniae; K. pneumoniae CDC 120, ESBL/KPC)?
A: The MIC was >64 µg/mL.

Q: And the MIC (Klebsiella pneumoniae; K. pneumoniae CDC 126, ESBL/KPC)?
A: Its MIC is 4 µg/mL (≈ 7.32 µM).

Q: And the MIC (Klebsiella pneumoniae; K. pneumoniae CDC 129, ESBL/KPC)?
A: The MIC was >64 µg/mL.

Q: And the MIC (Klebsiella pneumoniae; K. pneumoniae CDC 135, ESBL/VIM)?
A: The MIC was >64 µg/mL.

Q: What about the MIC (Klebsiella pneumoniae; K. pneumoniae CDC 138, ESBL/NDM) of the same compound?
A: The MIC was >64 µg/mL.

Q: What about the MIC (Klebsiella pneumoniae; K. pneumoniae CDC 158, ESBL/NDM/OXA) of the same compound?
A: Its MIC is >64 µg/mL.

Q: What about the MIC (Klebsiella pneumoniae; K. pneumoniae MMX 9029, ESBL) of the same compound?
A: The MIC was 4 µg/mL (≈ 7.32 µM).

Q: And the “QC range of MIC” value (Escherichia coli [4])?
A: The value was “(0.06-0.5) μg/mL”.

Q: And the MIC90 ([5]; CA-MRSA)?
A: Its MIC90 is >64 µg/mL.

Q: What about the MIC90 ([5]; MRSA) of the same compound?
A: Its MIC90 is >64 µg/mL.

Q: And the MIC90 ([5]; MSSA)?
A: Its MIC90 is 16 µg/mL (≈ 29.3 µM).

Q: And the MIC (Acinetobacter baumannii; A. baumannii CDC 273, ESBL/OXA)?
A: Its MIC is 64 µg/mL (≈ 117 µM).

Q: And the MIC (Acinetobacter baumannii; A. baumannii CDC 274, ESBL/OXA)?
A: Its MIC is >64 µg/mL.

Q: And the MIC (Acinetobacter baumannii; A. baumannii CDC 275, ESBL/OXA)?
A: The MIC was >64 µg/mL.

Q: And the MIC (Acinetobacter baumannii; A. baumannii CDC 277, ESBL/OXA)?
A: Its MIC is >64 µg/mL.

Q: What about the MIC (Acinetobacter baumannii; A. baumannii CDC 284, ESBL/OXA) of the same compound?
A: Its MIC is 64 µg/mL (≈ 117 µM).

Q: And the MIC (Acinetobacter baumannii; A. baumannii CDC 307, OXA)?
A: Its MIC is 64 µg/mL (≈ 117 µM).

Q: And the MIC (Acinetobacter baumannii; A. baumannii CDC 308, ESBL/OXA)?
A: The MIC was 64 µg/mL (≈ 117 µM).

Q: What about the MIC (Acinetobacter baumannii; A. baumannii CDC 311, OXA) of the same compound?
A: Its MIC is >64 µg/mL.

Q: What about the MIC (Acinetobacter baumannii; A. baumannii CDC 312, OXA) of the same compound?
A: The MIC was >64 µg/mL.

Q: What about the MIC (Acinetobacter baumannii; A. baumannii CDC 313, ESBL/OXA) of the same compound?
A: Its MIC is >64 µg/mL.

Q: What about the MIC (Acinetobacter baumannii; A. baumannii NCTC 13304, OXA) of the same compound?
A: Its MIC is >64 µg/mL.

Q: What about the “CLSI Quality Control Range (MIC)” value (Enterobacteriaceae [6]) of the same compound?
A: The value was “(0.06-0.5) μg/mL”.

Q: What about the MIC (Enterobacteriaceae [7]; E. cloacae (MMX 5981), NDM-1, LVX-R, MEM-R, CAZ-R, GEN-R) of the same compound?
A: The MIC was >32 µg/mL.

Q: And the MIC (Enterobacteriaceae [7]; E. coli (MMX 102), QC)?
A: Its MIC is 0.12 µg/mL (≈ 0.22 µM).

Q: What about the MIC (Enterobacteriaceae [7]; E. coli (MMX 5980), NDM-1, LVX-R, MEM-R, CAZ-R, GEN-R) of the same compound?
A: The MIC was >32 µg/mL.

Q: What about the MIC (Enterobacteriaceae [7]; E. coli (MMX 8423), ESBL, LVX-R, CAZ-R, GEN-R) of the same compound?
A: The MIC was 32 µg/mL (≈ 58.5 µM).

Q: And the MIC (Enterobacteriaceae [7]; E. coli (MMX 8424), ESBL, CAZ-R)?
A: The MIC was 16 µg/mL (≈ 29.3 µM).

Q: And the MIC (Enterobacteriaceae [7]; E. coli (MMX 8425), ESBL, LVX-R, CAZ-R, GEN-R)?
A: The MIC was 16 µg/mL (≈ 29.3 µM).

Q: What about the MIC (Enterobacteriaceae [7]; K. pneumoniae (MMX 4622), KPC-2, MEM-R, CAZ-R) of the same compound?
A: The MIC was >32 µg/mL.

Q: What about the MIC (Enterobacteriaceae [7]; K. pneumoniae (MMX 4623), KPC-2, MEM-R, CAZ-R, GEN-R) of the same compound?
A: The MIC was >32 µg/mL.

Q: And the MIC (Enterobacteriaceae [7]; K. pneumoniae (MMX 4653), KPC-3, LVX-R, MEM-R, CAZ-R)?
A: The MIC was >32 µg/mL.

Q: And the MIC (Enterobacteriaceae [7]; K. pneumoniae (MMX 4683), KPC-2, LVX-R, MEM-R, CAZ-R)?
A: The MIC was >32 µg/mL.

Q: What about the MIC (Enterobacteriaceae [7]; K. pneumoniae (MMX 4684), ESBL, MEM-R) of the same compound?
A: The MIC was 8 µg/mL (≈ 14.6 µM).

Q: What about the MIC (Enterobacteriaceae [7]; K. pneumoniae (MMX 4685), ESBL, LVX-R, MEM-R, CAZ-R) of the same compound?
A: Its MIC is >32 µg/mL.

Q: And the MIC (Enterobacteriaceae [7]; K. pneumoniae (MMX 4694), KPC-3, LVX-R, MEM-R, CAZ-R)?
A: Its MIC is >32 µg/mL.

Q: And the MIC (Enterobacteriaceae [7]; K. pneumoniae (MMX 5979), NDM-1, LVX-R, MEM-R, CAZ-R, GEN-R)?
A: The MIC was >32 µg/mL.

Q: And the “QC range of MIC” value (Pseudomonas aeruginosa [8])?
A: Its value is “(1-4) μg/mL”.
